Test results from ChEMBL document CHEMBL3108758, “Design, synthesis, and biological evaluation of potent and selective class IIa histone deacetylase (HDAC) inhibitors as a potential therapy for Huntington's disease” (J Med Chem, 2013).

Assays:
Plasma [1] = test: Dose normalized AUC in C57BL/6JO1aHsd mouse plasma at 10 mg/kg, po; assay type: ADME, organism-based; set-up: dose 10 mg/kg, route oral; details: in vivo
[2] = Tmax in C57BL/6JO1aHsd mouse plasma at 10 mg/kg, po; assay type: ADME, organism-based; set-up: dose 10 mg/kg, route oral
Brain [3] = test: Cmax in C57BL/6JO1aHsd mouse brain at 10 mg/kg, po; assay type: ADME, organism-based; set-up: dose 10 mg/kg, route oral; details: in vivo
[4] = Volume of distribution at steady state in C57BL/6JO1aHsd mouse at 5 mg/kg, iv; assay type: ADME, organism-based; set-up: dose 5 mg/kg, route intravenous; details: in vivo, read-out: Vdss
[5] = Tmax in C57BL/6JO1aHsd mouse muscle at 10 mg/kg, po; assay type: ADME, organism-based, Muscle tissue; set-up: dose 10 mg/kg, route oral
[6] = Oral bioavailability in C57BL/6JO1aHsd mouse at 10 mg/kg; assay type: ADME, organism-based; details: in vivo
Muscle tissue [7] = test: Cmax in C57BL/6JO1aHsd mouse muscle at 10 mg/kg, po; assay type: ADME, organism-based; set-up: dose 10 mg/kg, route oral; details: in vivo
Muscle tissue [8] = test: Dose normalized AUC in C57BL/6JO1aHsd mouse muscle at 10 mg/kg, po; assay type: ADME, organism-based; set-up: dose 10 mg/kg, route oral; details: in vivo
[9] = Tmax in C57BL/6JO1aHsd mouse brain at 10 mg/kg, po; assay type: ADME, organism-based; set-up: dose 10 mg/kg, route oral
Brain [10] = test: Dose normalized AUC in C57BL/6JO1aHsd mouse brain at 10 mg/kg, po; assay type: ADME, organism-based; set-up: dose 10 mg/kg, route oral; details: in vivo
Plasma [11] = test: Cmax in C57BL/6JO1aHsd mouse plasma at 10 mg/kg, po; assay type: ADME, organism-based; set-up: dose 10 mg/kg, route oral; details: in vivo
[12] = Ratio of drug uptake from brain to plasma in C57BL/6JO1aHsd mouse at 10 mg/kg, po; assay type: ADME, organism-based; set-up: dose 10 mg/kg, route oral; details: read-out: BPR
[13] = Ratio of drug uptake from muscle to plasma in C57BL/6JO1aHsd mouse at 10 mg/kg, po; assay type: ADME, organism-based; set-up: dose 10 mg/kg, route oral

| AUC/dose (Plasma [1]) [nM·kg·h/mg] | Tmax [2] [min] | Cmax normalised (Brain [3]) [nM·kg/mg] | Vd [4] [L/kg] | Tmax [5] [min] | bioavailability [6] [%] | Cmax normalised (Muscle tissue [7]) [nM·kg/mg] | AUC/dose (Muscle tissue [8]) [nM·kg·h/mg] | Tmax [9] [min] | AUC/dose (Brain [10]) [nM·kg·h/mg] | Cmax normalised (Plasma [11]) [nM·kg/mg] | Kp [12] | Kp [13] | SMILES |
| --- | --- | --- | --- | --- | --- | --- | --- | --- | --- | --- | --- | --- | --- |
| 1100 | 30 | 5.7 | 4.6 | 60 | 62 | 160 | 1000 | 30 | 17 | 280 |  |  | O=C(NO)[C@@H]1[C@H](c2ccccc2)[C@H]1c1ccc2c(c1)CN(CC(F)(F)F)C2=O |
| 1500 | 30 | 200 | 1.6 | 60 | 73 | 420 | 1000 | 60 | 390 | 810 | 0.3 | 0.4 | O=C(NO)[C@@H]1[C@H](c2ccccc2)[C@H]1c1ccc(-c2cnc(C3CC3)o2)cc1 |
| 1300 | 30 | 670 | 0.74 | 30 | 84 | 730 | 810 | 30 | 700 | 1200 |  |  | O=C(NO)[C@@H]1[C@H](c2ccccc2)[C@H]1c1ccc(-c2cnco2)cc1 |
